Data reported in US9573887B2, “Naphthalene derivative” (Daito Chemix Corporation, priority 2010, dated 2017).
Where a name gives a salt, the structure may show the parent alone.

Biological target: T1, Mouse VCP (Mus musculus, UniProt Q01853)
T1 construct: histidine tag (N); made in house; host or cells: Sf-9 insect cells (baculovirus vector pVL1392)
Assay: ATPase activity of purified His-tagged VCP, [γ-32P]ATP, liberated phosphate by liquid scintillation
Format: biochemical
Conditions: compounds of Examples; ATPase inhibitory activity; 500 ng VCP, 100 μM ATP, 37° C., 10 minutes
Procedure: In one aspect, the effect of VCP regulators for regulating ATPase activity is determined, for example by the following exemplary assay. Mouse VCP cDNA (the amino acid sequence is completely identical among mouse, rat and human) is added with a DNA sequence corresponding to a histidine tag at the amino-terminal, subcloned into a baculovirus vector pVL1392 (BD Bioscience), and expressed in Sf-9 insect cells. The protein is purified with a nickel column. After the purification the concentration of the protein is adjusted to 0.25-0.5 μg/ml and the protein is stored in a solution containing 50 mM TrisCl pH 8.0, 5 mM EDTA, 10% glycerol, and 15 mM DTT at 4° C. 500 ng of the purified VCP is mixed with 100 μM [γ-^32P]ATP (18.5 GBq/mmol) and the test substance in 20 μL of ATPase buffer (20 mM HEPES (pH7.4), 50 mM KCl, 5 mM MgCl2, 15 mM DTT), and incubated at 37° C. for 10 minutes. The enzyme reaction is stopped with addition of 200 μL of an ice-cold solution containing 7% TCA and 1 mM K2HPO4. 50μ of a solution containing 3.75% ammonium molybdate and 0.02M tungstate silicic/3 N H2SO4 is added, followed by 300 μL of n-butylacetic acid, and then the liberated phosphate is extracted into the organic layer. The reaction tube is centrifuged for 5 minutes at 20,000 g to separate the aqueous layer and the organic layer, 200 μL of the organic layer is taken, and the beta ray radiated from the liberated phosphate is quantified with liquid scintillation counter. By measuring the ATPase activity in the presence of the test substance at various concentrations, ATPase inhibitory activity of the test substance is measured.
Mouse VCP cDNA was added with a DNA sequence corresponding to histidine tag at the amino-terminal, subcloned into a baculovirus vector pVL1392 (BD Bioscience), and expressed in Sf-9 insect cells. The protein was purified with a nickel column (GE Healthcare). The concentration of the protein was adjusted to 0.25-0.5 μg/ml and the protein was stored in a solution containing 50 mM TrisCl pH 8.0, 5 mM EDTA, 10% glycerol, and 15 mM DTT.
The ATPase activity was determined as follows. 500 ng of the purified VCP was mixed with 100 μM [γ-32P]ATP (18.5 GBq/mmol) and the test substance in 20 μL of ATPase buffer (20 mM HEPES (pH7.4), 50 mM KCl, 5 mM MgCl2, 15 mM DTT), and incubated at 37° C. for 10 minutes.
The enzyme reaction was stopped with addition of 200 μL of an ice-cold solution containing 7% TCA and 1 mM K2HPO4. 50μ of a solution containing 3.75% ammonium molybdate and 0.02M tungstate silicic/3 NH2SO4 was added, followed by 300 μL of n-butylacetic acid, and then the liberated phosphate was extracted into the organic layer. The reaction tube was centrifuged for 5 minutes at 20,000 g to separate the aqueous layer and the organic layer, 200 μL of the organic layer was taken, and the beta ray radiated from the liberated phosphate was quantified with liquid scintillation counter.
By measuring the ATPase activity in the presence of the test substance at various concentrations, ATPase inhibitory activity of the test substance was measured. IC50 of the each test substance was calculated by applying the measured values to the equation below using GraphPad Prism (GraphPad Software).

T1 sequence (Q01853 whole entry): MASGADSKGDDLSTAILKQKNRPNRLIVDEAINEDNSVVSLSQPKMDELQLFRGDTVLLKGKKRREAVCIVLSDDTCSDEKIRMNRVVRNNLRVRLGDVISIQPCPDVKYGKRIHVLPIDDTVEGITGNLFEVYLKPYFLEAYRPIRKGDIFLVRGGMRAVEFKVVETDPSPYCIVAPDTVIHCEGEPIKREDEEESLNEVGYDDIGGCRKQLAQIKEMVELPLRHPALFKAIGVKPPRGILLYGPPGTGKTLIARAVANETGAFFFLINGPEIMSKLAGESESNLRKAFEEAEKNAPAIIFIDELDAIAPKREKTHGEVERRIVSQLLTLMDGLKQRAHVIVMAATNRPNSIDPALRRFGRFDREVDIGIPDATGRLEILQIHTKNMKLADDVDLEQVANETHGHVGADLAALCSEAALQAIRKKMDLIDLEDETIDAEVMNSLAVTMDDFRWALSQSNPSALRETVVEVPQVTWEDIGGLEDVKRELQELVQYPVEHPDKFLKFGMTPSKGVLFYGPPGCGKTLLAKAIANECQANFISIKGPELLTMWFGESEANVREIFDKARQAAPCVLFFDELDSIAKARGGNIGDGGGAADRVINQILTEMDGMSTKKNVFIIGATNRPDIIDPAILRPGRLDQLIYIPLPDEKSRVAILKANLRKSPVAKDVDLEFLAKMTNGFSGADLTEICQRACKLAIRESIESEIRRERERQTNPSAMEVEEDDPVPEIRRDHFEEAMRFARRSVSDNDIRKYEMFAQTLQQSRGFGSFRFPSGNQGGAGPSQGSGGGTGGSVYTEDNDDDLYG

| Structure (SMILES) | IC50 [nM] |
| --- | --- |
| Cc1ccc(F)c(-c2ccc(/N=N/c3cc(S(=O)(=O)O)c4ccccc4c3N)cn2)c1 [Example 59, 4-amino-3-[6-(2-fluoro-5-methylphenyl)pyridine-3-ylazo]naphthalene-1-sulfonic acid sodium salt] | 380 |
| CCCCOc1ccccc1-c1ccc(/N=N/c2cc(S(=O)(=O)O)c3ccccc3c2N)cn1 [Example 60, 4-amino-3-[6-(2-butoxyphenyl)pyridine-3-ylazo]naphthalene-1-sulfonic acid sodium salt] | 250 |
| CCCCCCOc1ccccc1-c1ccc(/N=N/c2cc(S(=O)(=O)O)c3ccccc3c2N)cn1 [Example 61, 4-amino-3-[6-(2-hexyloxyphenyl)pyridine-3-ylazo]naphthalene-1-sulfonic acid sodium salt] | 843 |
| CCCCc1ccc(-c2ccc(/N=N/c3cc(S(=O)(=O)O)c4ccccc4c3N)cn2)cc1 [Example 62, 4-amino-3-[6-(4-butylphenyl)pyridine-3-ylazo]naphthalene-1-sulfonic acid sodium salt] | 856 |
| Nc1c(/N=N/c2ccc(-c3ccccc3O)nc2)cc(S(=O)(=O)O)c2ccccc12 [Example 63, 4-amino-3-[6-(2-hydroxyphenyl)pyridine-3-ylazo]naphthalene-1-sulfonic acid sodium salt] | 807 |
| Nc1c(/N=N/c2ccc(-c3ccccc3OCCCCCCO)nc2)cc(S(=O)(=O)O)c2ccccc12 [Example 64, 4-amino-3-{6-[2-(6-hydroxyhexyloxy)phenyl]pyridine-3-ylazo}naphthalene-1-sulfonic acid sodium salt] | 324 |
| Nc1c(/N=N/c2ccc(-c3ccccc3OCCCO)nc2)cc(S(=O)(=O)O)c2ccccc12 [Example 66, 4-amino-3-{6-[2-(3-hydroxypropoxy)phenyl]pyridine-3-ylazo}naphthalene-1-sulfonic acid sodium salt] | 232 |
| CC(C)COc1ccccc1-c1ccc(/N=N/c2cc(S(=O)(=O)O)c3ccccc3c2N)cn1 [Example 67, 4-amino-3-[6-(2-isobutoxyphenyl)pyridine-3-ylazo]naphthalene-1-sulfonic acid sodium salt] | 130 |
| CC(C)(C)OC(=O)NCCCOc1ccccc1-c1ccc(/N=N/c2cc(S(=O)(=O)O)c3ccccc3c2N)cn1 [Example 68, 4-amino-3-{6-[2-(3-tert-butoxycarbonylaminopropoxy)phenyl]pyridine-3-ylazo}naphthalene-1-sulfonic acid sodium salt] | 201 |
| Nc1c(/N=N/c2ccc(-c3ccccc3OCCCNC(=O)c3cccnc3Cl)nc2)cc(S(=O)(=O)O)c2ccccc12 [Example 69, 4-amino-3-[6-(2-{3-[(2-chloropyridine-3-carbonyl)amino]propoxy}phenyl)pyridine-3-ylazo]naphthalene-1-sulfonic acid sodium salt] | 90 |
| Nc1c(/N=N/c2ccc(-c3cc(Cl)ccc3O)nc2)cc(S(=O)(=O)O)c2ccccc12 [Example 70, 4-amino-3-[6-(5-chloro-2-hydroxyphenyl)pyridine-3-ylazo]naphthalene-1-sulfonic acid sodium salt] | 712 |
| Cc1ccc(-c2ccccc2)c(-c2ccc(/N=N/c3cc(S(=O)(=O)O)c4ccccc4c3N)cn2)c1 [Example 71, 4-amino-3-[6-(4-methylbiphenyl-2-yl)pyridine-3-ylazo]naphthalene-1-sulfonic acid sodium salt] | 257 |
| Cc1ccc(-c2ccc(Cl)cc2)c(-c2ccc(/N=N/c3cc(S(=O)(=O)O)c4ccccc4c3N)cn2)c1 [Example 72, 4-amino-3-[6-(4′-chloro-4-methylbiphenyl-2-yl)pyridine-3-ylazo]naphthalene-1-sulfonic acid sodium salt] | 796 |
| Nc1c(/N=N/c2ccc(-c3cccc4c3S(=O)(=O)c3ccccc3-4)nc2)cc(S(=O)(=O)O)c2ccccc12 [Example 73, 4-amino-3-[6-(5,5-dioxo-5H-5λ^6-dibenzothiophene-4-yl)pyridine-3-ylazo]naphthalene-1-sulfonic acid sodium salt] | 499 |
| Cc1cc(C)cc(-c2ccc(C)cc2-c2ccc(/N=N/c3cc(S(=O)(=O)O)c4ccccc4c3N)cn2)c1 [Example 74, 4-amino-3-[6-(4,3′,5′-trimethylbiphenyl-2-yl)pyridine-3-ylazo]naphthalene-1-sulfonic acid sodium salt] | 4000 |
| Cc1ccc(-c2cccc(Cl)c2)c(-c2ccc(/N=N/c3cc(S(=O)(=O)O)c4ccccc4c3N)cn2)c1 [Example 75, 4-amino-3-[6-(3′-chloro-4-methylbiphenyl-2-yl)pyridine-3-ylazo]naphthalene-1-sulfonic acid sodium salt] | 924 |
| Nc1c(/N=N/c2ccc(-c3cccc4c3Sc3ccccc3S4)nc2)cc(S(=O)(=O)O)c2ccccc12 [Example 76, 4-amino-3-(6-thianthrene-1-ylpyridine-3-ylazo)naphthalene-1-sulfonic acid sodium salt] | 1410 |
| Nc1c(/N=N/c2ccc(-c3ccccc3OCCCNC(=O)c3ccnc(Cl)c3)nc2)cc(S(=O)(=O)O)c2ccccc12 [Example 77, 4-amino-3-[6-(2-{3-[(2-chloropyridine-4-carbonyl)amino]propoxy}phenyl)pyridine-3-ylazo]naphthalene-1-sulfonic acid sodium salt] | 366 |
| Nc1c(/N=N/c2ccc(-c3ccccc3OCCCN3C(=O)c4ccccc4C3=O)nc2)cc(S(=O)(=O)O)c2ccccc12 [Example 78, 4-amino-3-(6-{2-[3-(1,3-dioxo-1,3-dihydroisoindole-2-yl)propoxy]phenyl}pyridine-3-ylazo)naphthalene-1-sulfonic acid sodium salt] | 402 |
| Cc1cc(F)ccc1-c1ncc(/N=N/c2cc(S(=O)(=O)O)c3ccccc3c2N)cc1C [Example 79, 4-amino-3-[6-(4-fluoro-2-methylphenyl)-5-methylpyridine-3-ylazo]naphthalene-1-sulfonic acid sodium salt] | 798 |
| Nc1c(/N=N/c2ccc(-c3c(OCc4cccnc4)ccc4c3sc3ccccc34)nc2)cc(S(=O)(=O)O)c2ccccc12 [Example 80, 4-amino-3-{6-″3-(pyridine-3-ylmethoxy)dibenzothiophene-4-yl]pyridine-3-ylazo}naphthalene-1-sulfonic acid sodium salt] | 329 |
| Nc1c(/N=N/c2ccc(-c3c(OCCCNC(=O)c4cccnc4Cl)ccc4c3sc3ccccc34)nc2)cc(S(=O)(=O)O)c2ccccc12 [Example 81, 4-amino-3-[6-(3-{3-[(2-chloropyridine-3-carbonyl)amino]propoxy}dibenzothiophene-4-yl)pyridine-3-ylazo]naphthalene-1-sulfonic acid sodium salt] | 207 |
| Nc1c(/N=N/c2ccc(-c3c(OCCCO)ccc4c3sc3ccccc34)nc2)cc(S(=O)(=O)O)c2ccccc12 [Example 82, 4-amino-3-{6-[3-(3-hydroxypropoxy)dibenzothiophene-4-yl]pyridine-3-ylazo}naphthalene-1-sulfonic acid sodium salt] | 289 |
| Nc1c(/N=N/c2ccc(-c3cccc4cccnc34)nc2)cc(S(=O)(=O)O)c2ccccc12 [Example 83, 4-amino-3-(6-quinoline-8-ylpyridine-3-ylazo)naphthalene-1-sulfonic acid sodium salt] | 350 |
| Cc1ccc2cccc(-c3ccc(/N=N/c4cc(S(=O)(=O)O)c5ccccc5c4N)cn3)c2n1 [Example 84, 4-amino-3-[6-(2-methylquinoline-8-yl)pyridine-3-ylazo]naphthalene-1-sulfonic acid sodium salt] | 567 |
| Cc1cc(/N=N/c2cc(S(=O)(=O)O)c3ccccc3c2N)cnc1-c1cccc2c1sc1ccccc12 [Example 85, 4-amino-3-(6-dibenzothiophene-4-yl-5-methylpyridine-3-ylazo)naphthalene-1-sulfonic acid sodium salt] | 1050 |
